Here are results for three molecules from BindingDB's records for doi:10.1124/mol.60.1.124 (U410, 2001).

Where “and” joins values, the source holds several entries; their conditions need not be identical. Equal entries are not always repeated.

The target of the assay is T1, Neuropeptide Y receptor type 2 (Rattus norvegicus, UniProt Q9ERC0).
T1 sequence (Q9ERC0 whole entry): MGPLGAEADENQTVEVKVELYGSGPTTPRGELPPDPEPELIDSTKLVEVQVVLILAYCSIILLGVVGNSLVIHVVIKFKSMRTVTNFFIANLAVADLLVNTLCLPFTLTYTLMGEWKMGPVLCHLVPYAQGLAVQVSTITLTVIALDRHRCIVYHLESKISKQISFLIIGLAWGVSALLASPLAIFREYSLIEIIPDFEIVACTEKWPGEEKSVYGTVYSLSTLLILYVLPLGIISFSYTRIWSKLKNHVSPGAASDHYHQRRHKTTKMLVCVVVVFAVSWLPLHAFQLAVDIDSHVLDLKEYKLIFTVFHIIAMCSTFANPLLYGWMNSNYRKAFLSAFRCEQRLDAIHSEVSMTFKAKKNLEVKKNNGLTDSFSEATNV

The term Ki denotes a dissociation constant, usually derived from enzyme kinetics or from competition with a known ligand. A higher Ki goes with weaker binding. Regarding `O=c1oc2ccccc2c(O)c1C1CC(c2ccc(-c3ccccc3)cc2)Cc2ccccc21` (stereo not drawn) [NSC_41735], the Ki is 1000 nM.
`NC(N)=NCCCC(NC(=O)CC1(CC(=O)N2CCN(C3c4ccccc4NC(=O)c4ccccc43)CC2)CCCC1)C(=O)NCCn1c(=O)n(-c2ccccc2)n(-c2ccccc2)c1=O` (stereo not drawn) [NSC_5311024] returned a Ki of 6.5 nM.
With `CC(=O)N[C@@H](C)C(=O)N[C@@H](CO)C(=O)N[C@@H](CC(C)C)C(=O)N[C@@H](CCCNC(=N)N)C(=O)N[C@@H](Cc1cnc[nH]1)C(=O)N[C@@H](Cc1ccc(O)cc1)C(=O)N[C@@H](CC(C)C)C(=O)N[C@@H](CC(N)=O)C(=O)N[C@@H](CC(C)C)C(=O)N[C@H](C(=O)N[C@H](C(=O)N[C@@H](CCCNC(=N)N)C(=O)N[C@@H](CCC(N)=O)C(=O)N[C@@H](CCCNC(=N)N)C(=O)N[C@@H](Cc1ccc(O)cc1)C(N)=O)[C@@H](C)O)C(C)C` [PYY, N-alpha-Ac, 22-36], the Ki is 1.66 nM and 0.54 nM.
